According to US7678918B2, “Intermediates for imidazonaphthyridines” (3M Innovative Properties Company, priority 1997, dated 2010):

What was measured:
[1] = test system: IFN; experiment: Cytokine Induction in Human Cells: interferon (IFN) secreted by PBMCs, A549/encephalomyocarditis bioassay; format: cell-based; conditions: 18 to 24 hours; also: call rule not given here
Method in brief: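 Human PBMCs from healthy donors at 1.5-2×10^6 cells/mL in RPMI with 10% FBS, exposed to compounds (typically 0.1 to 100 μM, ≤1% DMSO) for 18 to 24 h at 37° C. Secreted IFN measured by A549/encephalomyocarditis virus cytopathic-effect bioassay, in alpha reference units/mL against NIH human leukocyte IFN standard.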

[2] = test system: TNF; experiment: Cytokine Induction in Human Cells: tumor necrosis factor (TNF) secreted by PBMCs, ELISA; format: cell-based; conditions: 18 to 24 hours; also: call rule not given here
Method in brief: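 Human donor PBMCs at 1.5-2×10^6 cells/mL in RPMI with 10% FBS were exposed to compound, generally at 0.1 to 100 μM (≤1% DMSO final), for 18 to 24 h at 37 °C. Secreted TNF in supernatant was measured by ELISA and reported as pg/mL.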

SMILES	IFN induction ([1]; Dose Concentration 0.1 μM)	IFN induction ([1]; Dose Concentration 1.0 μM)	IFN induction ([1]; Dose Concentration 10.0 μM)	IFN induction ([1]; Dose Concentration 100.0 μM)	TNF induction ([2]; Dose Concentration 0.1 μM)	TNF induction ([2]; Dose Concentration 1.0 μM)	TNF induction ([2]; Dose Concentration 10.0 μM)	TNF induction ([2]; Dose Concentration 100.0 μM)	melting point
CCCCc1nc2c(N)nc3cccnc3c2n1CCNC(=O)Cc1cccc(O)c1 [Example 98, N^1-[2-(4-Amino-2-butyl-1H-imidazo[4,5-c][1,5]naphthyridin-1-yl)ethyl]-2-(3-hydroxyphenyl)acetamide]	−	+	+	+	−	+	+	+	208 to 210 °C
CCCCc1nc2c(N)nc3cccnc3c2n1CCNC(=O)c1cccc(O)n1 [Example 99, N-[2-(4-Amino-2-butyl-1H-imidazo[4,5-c][1,5]naphthyridin-1-yl)ethyl]-6-hydroxy-2-pyridinecarboxamide]	−	−	+	+	−	−	+	+	258 to 260 °C
CCCCc1nc2c(N)nc3cccnc3c2n1CCNC(=O)CC(C)CCC=C(C)C (centres unmarked) [Example 100, N^1-[2-(4-Amino-2-butyl-1H-imidazo[4,5-c][1,5]naphthyridin-1-yl)ethyl]-3,7-dimethyl-6-octenamide]	−	−	+	+	−	−	+	+	163 to 164 °C
CCCCc1nc2c(N)nc3cccnc3c2n1CCNC(=O)C(CC(C)C)NC(=O)OC(C)(C)C (centres unmarked) [Example 101, 1,1-Dimethylethyl N-[1-({[2-(4-Amino-2-butyl-1H-imidazo[4,5-c][1,5]naphthyridin-1-yl)ethyl]amino}carbonyl)-3-methylbutyl]carbamate]	−	−	+	+	−	−		+	184 to 185 °C
CCCCc1nc2c(N)nc3cccnc3c2n1CCNC(=O)c1c(C)noc1C [Example 103, N-[2-(4-Amino-2-butyl-1H-imidazo[4,5-c][1,5]naphthyridin-1-yl)ethyl]-3,5-dimethyl-4-isoxazolecarboxamide]	−	−	+	+	−	−	+	+	188 to 189 °C
CCCCc1nc2c(N)nc3c(c2n1CCNC(=O)c1cc(C(C)(C)C)c(O)c(C(C)(C)C)c1)NCCC3 [Example 104, N^1-[2-(4-Amino-2-butyl-6,7,8,9-tetrahydro-1H-imidazo[4,5-c][1,5]naphthyridin-1-yl)ethyl]-3,5-di-(1,1-dimethylethyl)-4-hydroxybenzamide]	−	+	+	−	−	−	+	−	208 to 210 °C
CCCCc1nc2c(N)nc3cccnc3c2n1CCCCNC(=O)Cn1cc(C)c(O)nc1=O [Example 108, N^1-[4-(4-Amino-2-butyl-1H-imidazo[4,5-c][1,5]naphthyridin-1-yl)butyl]-2-(4-hydroxy-5-methyl-2-oxo-1,2-dihydro-1-pyrimidinyl)acetamide]	+	+	+	+	±	−	+	+	242 to 244 °C
CCCCc1nc2c(N)nc3cccnc3c2n1CCCCNC(=O)CSc1ncccn1 [Example 109, N^1-[4-(4-Amino-2-butyl-1H-imidazo[4,5-c][1,5]naphthyridin-1-yl)butyl]-2-(2-pyrimidinylsulfanyl)acetamide]	+	+	+	+	−	±	+	+	156 to 160 °C (dec.)
CCCCc1nc2c(N)nc3cccnc3c2n1CCCCNC(=O)CSc1ccncc1 [Example 110, N^1-[4-(4-Amino-2-butyl-1H-imidazo[4,5-c][1,5]naphthyridin-1-yl)butyl]-2-(4-pyridylsulfanyl)acetamide]	+	+	+	+	−	+	+	+	127.5 to 129 °C
NCCCCn1cnc2c(N)nc3cccnc3c21 [Example 111, 4-(4-amino-1H-imidazo[4,5-c][1,5]naphthyridin-1-yl)butaneamine]	−	−	+	+	−	−	+	+	161 to 163 °C
CCCCc1nc2c(N)nc3cccnc3c2n1CCCCNC(=O)c1ccc(C(OCCN(C)C)c2ccccc2)cc1 (centres unmarked) [Example 112, N^1-[4-(4-Amino-2-butyl-1H-imidazo[4,5-c][1,5]naphthyridin-1-yl)butyl]-4-{[2-(dimethylamino)ethoxy](phenyl)methyl}benzamide]	+	+	+	±	+	+	−	−	105 to 108 °C
CCCCc1nc2c(N)nc3cccnc3c2n1CCNC(=O)Cn1cc(C)c(=O)[nH]c1=O [Example 114, N^1-[4-(4-Amino-2-butyl-1H-imidazo[4,5-c][1,5]naphthyridin-1-yl)ethyl]-2-(5-methyl-2,4-dioxo-1,2,3,4-tetrahydro-1-pyrimidinyl)acetamide]	−	−	+	+	−	−	+	+	241 to 242 °C
CCCCc1nc2c(N)nc3cccnc3c2n1CCNC(=O)CCCCCC1NC(=O)NC1C (centres unmarked) [Example 115, N^1-[4-(4-Amino-2-butyl-1H-imidazo[4,5-c][1,5]naphthyridin-1-yl)ethyl]-6-(5-methyl-2-oxo-4-imidazolidinyl)hexamide]	−	−	+	+	−	−	+	+	184 to 186 °C
